Data as given in patent US12281117B2, “Small molecule immune agonists and immune targeting compounds and application thereof” (SHENZHEN UNIVERSITY, priority 2018, dated 2025).

Columns and labels:
spleen lymphocytes = test: Immunostimulatory effects on spleen lymphocytes, cytokines in supernatant by ELISA; assay type: cell-based, BALB/c or C57BL/6 mouse; settings: FIG. 59 and FIG. 60; compared with JQ1 plus SZU-101
Protocol: Effect Example 1: Detection of the Immunostimulatory Effects of the SZU-Series Small-Molecule Immune Agonists and Novel Immune Targeted Compounds of the Present Invention on Spleen Lymphocytes
1. Extraction of Spleen Lymphocytes
(1) BALB/c or C57BL/6 mouse spleens were collected, ground in a small dish containing Mouse Lymphocyte Separation Medium, and filtered through a filter membrane (with a pore size of […]) to obtain a cell suspension, which was treated by centrifugation to obtain lymphocytes. The isolated lymphocytes were placed in a 15 mL centrifuge tube, into which 10 mL of 1640 complete medium was added. The mixture was mixed uniformly and centrifuged at 250 g for 10 minutes. The supernatant was discarded.
(2) The cells were re-suspended with 1 mL of erythrocyte lysate. After 1 minute of lysis, 4 mL of 1640 complete medium was added for termination. The tube was centrifuged at 1,000 rpm for 5 minutes. The supernatant was discarded.
(3) The cells were re-suspended with 2 mL of 1640 complete medium, counted, and then seeded into 24-well plates at a density of 1×10^6 cells per well.
2. Preparation of the Samples
The spleen lymphocytes seeded into the 24-well plates were stimulated with different concentrations of the SZU-series small-molecule immune agonists and novel immune targeted compounds. The 24-well plate was transferred into an incubator. […]

[1] = system: CD274 (PD-L1) on B16 cells; test: Inhibitory activity against CD274 (PD-L1) on B16 cells; assay type: cell-based; settings: FIG. 61

## COCCOc1nc(N)c2nc(O)n(Cc3ccc(CNC(=O)CCC(=O)NCCOCCOCCOCCNC(=O)C[C@@H]4N=C(c5ccc(Cl)cc5)c5c(sc(C)c5C)-n5c(C)nnc54)cc3)c2n1 [SZU-119]
Spleen lymphocytes
  activity of TLR7 agonist for stimulating immune cytokine: retains the activity of TLR7 agonist
[1]
  inhibitory activity against CD274 (PD-L1) on B16 cells: retains the inhibitory activity of JQ1
